What was measured:
[1] = biological target: T1, ERK5 (activated catalytic domain) (Homo sapiens, UniProt Q13164); test: Cell-Free Assay of ERK5 Inhibition (Time-Resolved FRET, 4EBP1 peptide phosphorylation); format: biochemical; conditions: ERK5 catalytic domain 4 nM, 1 mM ATP, 1 μM biotinylated 4EBP1 peptide, 30 min at 37° C.; mean where repeated; read-out: Cell-free assay (IC50 in nM)
T1 construct: purchased CarnaBiosciences 04-146
Method: (§1) Two assays were performed to assess the ERK5 inhibitory activity of compounds of the Examples, a cell-based assay and a cell-free biochemical assay. Where repeat measurements were taken, the value reported is a mean average.
An assay was performed to measure the capacity of each compound to inhibit ERK5 enzymatic activity. Compound potency was evaluated by Time-Resolved Forster Resonance Energy Transfer (FRET system). The activated catalytic domain of protein ERK5 (CarnaBiosciences #04-146) was mixed at 4 nM with varying concentrations of compound and incubated for 30 minutes at room temperature. A mixture of 1 mM ATP and 1 μM biotinylated synthetic peptide was added (Biosyntan GmbH). This synthetic peptide represents amino acids 30-52 of Eukaryotic translation initiation factor 4E-binding protein 1 (see, e.g., the sequence under accession No. NP_004086.1) biotinylated at the N-terminus. After 30 minutes at 37° C., the peptide phosphorylation by ERK5 was measured by addition of FRET reagents consisting of 12.5 μg/ml Streptavidin-XL665, 1 nM Anti-P-4EBP1 antibody and 300 ng/ml Anti-rabbit-K antibody. Following 90 minutes at room temperature fluorescent signals were read on the Pherastar FSX multimod detector from BMG Labtech (Exc° 340 nm, Em1 620 nm, Em2 665 nm). The IC50 values represent the concentration of compound which inhibits the measurable fluorescence signal by 50% as compared to the DMSO only control.

ERK5 = biological target: T2, ERK5 (Homo sapiens, UniProt Q13164); test: Inhibition of Cellular ERK5 Activity (cell-based assay, MEF2 luciferase reporter in SN12C cells); conditions: renal cancer cell line SN12C, doxycycline-induced MEKSDD, mean where repeated
T2 construct: MEF2-luciferase reporter
T2 sequence (Q13164 whole entry): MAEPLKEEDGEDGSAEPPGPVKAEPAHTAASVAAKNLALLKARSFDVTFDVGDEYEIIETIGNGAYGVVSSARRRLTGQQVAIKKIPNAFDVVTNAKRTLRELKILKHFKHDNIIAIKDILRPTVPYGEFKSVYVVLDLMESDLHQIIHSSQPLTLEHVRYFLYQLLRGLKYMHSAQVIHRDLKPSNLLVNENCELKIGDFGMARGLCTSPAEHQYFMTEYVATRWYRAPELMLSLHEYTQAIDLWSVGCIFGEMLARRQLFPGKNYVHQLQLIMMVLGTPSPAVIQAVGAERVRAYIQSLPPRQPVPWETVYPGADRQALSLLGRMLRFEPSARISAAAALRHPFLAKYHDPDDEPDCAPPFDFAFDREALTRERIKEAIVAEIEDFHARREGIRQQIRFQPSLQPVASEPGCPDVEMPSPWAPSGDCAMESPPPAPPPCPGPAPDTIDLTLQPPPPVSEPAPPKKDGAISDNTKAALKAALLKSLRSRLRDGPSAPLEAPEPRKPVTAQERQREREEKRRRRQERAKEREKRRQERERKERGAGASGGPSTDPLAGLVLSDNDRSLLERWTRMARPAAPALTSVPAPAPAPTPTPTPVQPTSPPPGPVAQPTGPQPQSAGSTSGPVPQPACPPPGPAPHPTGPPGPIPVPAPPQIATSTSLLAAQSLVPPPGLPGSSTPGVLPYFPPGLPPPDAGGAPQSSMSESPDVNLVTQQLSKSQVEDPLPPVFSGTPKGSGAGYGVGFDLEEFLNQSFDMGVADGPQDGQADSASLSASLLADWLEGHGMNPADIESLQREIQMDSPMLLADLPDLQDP
Method: as §1
The renal cancer cell line SN12C was transduced by a lentivirus pGreenFire1 MEF2 EF1 Neo (ref TR030VA-N) from SBI using standard infection protocol. pGreenFire1 MEF2 EF1 Neo allows the expression of luciferase gene under the control of minimal promoter with MEF2 transcriptional response elements. Cells harboring the reporter construct were selected by geneticin treatment. The selected cells were then transposed by a piggyback based plasmid pCM4007 allowing the expression of constitutively activated MEKSDD under control of TREG3 promoter, a doxycycline regulated promoter. Transposed cells were selected by puromycin treatment. Upon doxycycline treatment (1p g/ml) MEKSDD was expressed. MEKSDD activates ERK5 that phosphorylates MEF2C protein. Activated MEF2C protein can bind to its transcriptional response elements. Then the luciferase is expressed. In a 96-well plate (96F nuncleon refl37101 thermofisher), 50,000 cells were inoculated in 142.5 μl of RPMI medium containing 10% fetal calf serum, 1% glutamine, and 1 μg/ml doxycycline. After 24 hours, compounds were added in 7.5 μl culture medium (with 2% DMSO to give a final concentration of 0.1%) in order to obtain the desired concentration (0.3-1000 nM). The luciferase activity was measured using the Kit Bright Glo Luminescent Cell Assay Cat E2610 (Promega) according to the manufacturer's protocol. Luminescence was determined using 0.2 second reading/well using a Tecan SPARK. IC50 values were calculated using XLFIT5 for Microsoft Excel using method 205. The IC50 values represent the concentration of compound which inhibits the measurable luminescence signal by 50% as compared to DMSO-treated control cells.

T1 sequence (Q13164 55-347 limits assumed): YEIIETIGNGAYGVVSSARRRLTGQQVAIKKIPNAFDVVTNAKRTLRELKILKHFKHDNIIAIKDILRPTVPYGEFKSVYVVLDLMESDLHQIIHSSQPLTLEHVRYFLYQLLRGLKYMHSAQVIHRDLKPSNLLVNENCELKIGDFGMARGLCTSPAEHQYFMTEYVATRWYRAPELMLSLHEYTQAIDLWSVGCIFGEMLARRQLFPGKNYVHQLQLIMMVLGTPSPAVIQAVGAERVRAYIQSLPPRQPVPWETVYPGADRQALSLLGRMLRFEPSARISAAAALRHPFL

| Structure (SMILES) | IC50 [1] | IC50 (ERK5) |
| --- | --- | --- |
| Nc1cc(OC(F)(F)F)ccc1C(=O)N1CCC(n2c(=O)[nH]c3ncc(N4CCO[C@@H](CO)C4)cc32)CC1 [Example 13, 1-[1-[2-Amino-4-(trifluoromethoxy)benzoyl]-4-piperidyl]-6-[(2R)-2-(hydroxymethyl)morpholin-4-yl]-3H-imidazo[4,5-b]pyridin-2-one] | 225 nM | 1330 nM |
| Nc1cc(OC(F)(F)F)ccc1C(=O)N1CCC(n2c(=O)[nH]c3ncc(C45CCNCC4C5)cc32)CC1 (racemic) [Example 28, (rac)-1-[1-[2-amino-4-(trifluoromethoxy)benzoyl]-4-piperidyl]-6-(3-azabicyclo[4.1.0]heptan-6-yl)-3H-imidazo[4,5-b]pyridin-2-one, 2,2,2-trifluoroacetic acid] | 533 nM | – |
| O=C(c1ccc(OC(F)(F)F)cc1)N1CCC(n2c(=O)[nH]c3ncc(C4CCOC4)cc32)CC1 (racemic) [Example 15, (rac)-6-Tetrahydrofuran-3-yl-1-[1-[4-(trifluoromethoxy)benzoyl]-4-piperidyl]-3H-imidazo[4,5-b]pyridin-2-one] | 203 nM | 282 nM |
| O=C(c1ccc(OC(F)(F)F)cc1)N1CCC(n2c(=O)[nH]c3ncc(N4CCO[C@@H](CO)C4)cc32)CC1 [Example 11, 6-[(2R)-2-(hydroxymethyl)morpholin-4-yl]-1-[1-[4-(trifluoromethoxy)benzoyl]-4-piperidyl]-3H-imidazo[4,5-b]pyridin-2-one] | 1050 nM | 1830 nM |
| O=C(c1ccc(OC(F)(F)F)cc1)N1CCC(n2c(=O)[nH]c3ncc(C4CCCC(=NO)CC4)cc32)CC1 (single isomer, unassigned; isomer 2) [Example 65, (rac)-6-[(4E/Z)-4-hydroxyiminocycloheptyl]-1-[1-[4-(trifluoromethoxy)benzoyl]-4-piperidyl]-3H-imidazo[4,5-b]pyridin-2-one, Isomer 2] | – | 575 nM |
| O=C(c1ccc(OC(F)(F)F)cc1)N1CCC(n2c(=O)[nH]c3ncc(C4CCCC(=NO)CC4)cc32)CC1 (single isomer, unassigned; isomer 1) [Example 64, (rac)-6-[(4E/Z)-4-hydroxyiminocycloheptyl]-1-[1-[4-(trifluoromethoxy)benzoyl]-4-piperidyl]-3H-imidazo[4,5-b]pyridin-2-one, Isomer 1] | – | 358 nM |
| O=C(c1ccc(OC(F)(F)F)cc1)N1CCC(n2c(=O)[nH]c3ncc([C@@H]4CCCC[C@@H](O)C4)cc32)CC1 (racemic) [Example 66, (rac)-trans-6-(3-hydroxycycloheptyl)-1-[1-[4-(trifluoromethoxy)benzoyl]-4-piperidyl]-3H-imidazo[4,5-b]pyridin-2-one] | – | 547 nM |
| O=C(c1ccc(OC(F)(F)F)cc1)N1CCC(n2c(=O)[nH]c3ncc([C@H]4CCCC[C@@H](O)C4)cc32)CC1 (racemic) [Example 67, (rac)-cis-6-(3-hydroxycycloheptyl)-1-[1-[4-(trifluoromethoxy)benzoyl]-4-piperidyl]-3H-imidazo[4,5-b]pyridin-2-one] | – | 358 nM |

Second part, the compound after the results:

| IC50 [1] | IC50 (ERK5) | Structure (SMILES) |
| --- | --- | --- |
| 239 nM | 273 nM | CN1CCC(Oc2cnc3[nH]c(=O)n(C4CCN(C(=O)c5ccc(OC(F)(F)F)cc5N)CC4)c3c2)C1 (single isomer, unassigned; isomer 1) [Example 47, 1-[1-[2-amino-4-(trifluoromethoxy)benzoyl]-4-piperidyl]-6-[1-methylpyrrolidin-3-yl]oxy-3H-imidazo[4,5-b]pyridin-2-one, Isomer 1] |
| 430 nM | 96 nM | O=C(c1ccc(OC(F)(F)F)cc1)N1CCC(n2c(=O)[nH]c3ncc(OC4CCOC4)cc32)CC1 (racemic) [Example 56, (rac)-6-tetrahydrofuran-3-yloxy-1-[1-[4-(trifluoromethoxy)benzoyl]-4-piperidyl]-3H-imidazo[4,5-b]pyridin-2-one] |
| 77 nM | 150 nM | CN1CCC(Oc2cnc3[nH]c(=O)n(C4CCN(C(=O)c5ccc(OC(F)(F)F)cc5N)CC4)c3c2)C1 (racemic) [Example 6, (rac)-1-[1-[2-amino-4-(trifluoromethoxy)benzoyl]-4-piperidyl]-6-(1-methylpyrrolidin-3-yl)oxy-3H-imidazo[4,5-b]pyridin-2-one] |
| 405 nM | 184 nM | Nc1cc(OC(F)(F)F)ccc1C(=O)N1CCC(n2c(=O)[nH]c3ncc(C4CCN(CC(F)(F)F)CC4)cc32)CC1 [Example 53, 1-[1-[2-amino-4-(trifluoromethoxy)benzoyl]-4-piperidyl]-6-[1-(2,2,2-trifluoroethyl)-4-piperidyl]-3H-imidazo[4,5-b]pyridin-2-one] |
| 52 nM | 205 nM | Nc1cc(OC(F)(F)F)ccc1C(=O)N1CCC(n2c(=O)[nH]c3ncc([C@H]4CC[C@H](O)CC4)cc32)CC1 [Example 51, trans-1-[1-[2-amino-4-(trifluoromethoxy)benzoyl]-4-piperidyl]-6-(4-hydroxycyclohexyl)-3H-imidazo[4,5-b]pyridin-2-one] |
| 395 nM | 42 nM | Nc1cc(OC(F)(F)F)ccc1C(=O)N1CCC(n2c(=O)[nH]c3ncc(C4CC5(CC(F)C5)C4)cc32)CC1 (centres unmarked) [Example 21, 1-[1-[2-amino-4-(trifluoromethoxy)benzoyl]-4-piperidyl]-6-(2-fluorospiro[3.3]heptan-6-yl)-3H-imidazo[4,5-b]pyridin-2-one] |
| 420 nM | 213 nM | Nc1cc(OC(F)(F)F)ccc1C(=O)N1CCC(n2c(=O)[nH]c3ncc(C4CCC4)cc32)CC1 [Example 29, 1-[1-[2-amino-4-(trifluoromethoxy)benzoyl]-4-piperidyl]-6-cyclobutyl-3H-imidazo[4,5-b]pyridin-2-one] |
| 29 nM | 48 nM | Nc1cc(OC(F)(F)F)ccc1C(=O)N1CCC(n2c(=O)[nH]c3ncc(OC4CCOCC4)cc32)CC1 [Example 1, 1-[1-[2-amino-4-(trifluoromethoxy)benzoyl]-4-piperidyl]-6-tetrahydropyran-4-yloxy-3H-imidazo[4,5-b]pyridin-2-one] |
| 150 nM | 74 nM | Nc1cc(OC(F)(F)F)ccc1C(=O)N1CCC(n2c(=O)[nH]c3ncc(OC4CCOC4)cc32)CC1 (single isomer, unassigned; isomer 1) [Example 43, 1-[1-[2-amino-4-(trifluoromethoxy)benzoyl]-4-piperidyl]-6-[tetrahydrofuran-3-yl]oxy-3H-imidazo[4,5-b]pyridin-2-one, Isomer 1] |
| – | 254 nM | O=C1CCCC(c2cnc3[nH]c(=O)n(C4CCN(C(=O)c5ccc(OC(F)(F)F)cc5)CC4)c3c2)CC1 (racemic) [Example 63, (rac)-6-(4-oxocycloheptyl)-1-[1-[4-(trifluoromethoxy)benzoyl]-4-piperidyl]-3H-imidazo[4,5-b]pyridine-2-one] |
| – | 257 nM | O=C(c1ccc(OC(F)(F)F)cc1)N1CCC(n2c(=O)[nH]c3ncc([C@H]4CCC[C@@H](O)CC4)cc32)CC1 (racemic) [Example 62, (rac)-cis-6-(4-hydroxycycloheptyl)-1-[1-[4-(trifluoromethoxy)benzoyl]-4-piperidyl]-3H-imidazo[4,5-b]pyridin-2-one] |
| – | 202 nM | O=C(c1ccc(OC(F)(F)F)cc1)N1CCC(n2c(=O)[nH]c3ncc([C@@H]4CCC[C@@H](O)CC4)cc32)CC1 (racemic) [Example 61, (rac)-trans-6-(4-hydroxycycloheptyl)-1-[1-[4-(trifluoromethoxy)benzoyl]-4-piperidyl]-3H-imidazo[4,5-b]pyridin-2-one] |

— patent US20260297087A1, “Pyridoimidazolone Compounds, Preparation Thereof and Therapeutic Uses Thereof” (Sanofi, priority 2023, published 2026)
